The target of the experiment is T1, cyclooxygenase-1 (COX-1) (Homo sapiens, UniProt P23219).
T1 construct: gene PTGS1; human recombinant COX-1 stably overexpressed in HEK-293 cells
Briefly: PGE2 production from added arachidonic acid in HEK-293 cells overexpressing human COX-1. In kind it is cell-based.

T1 sequence (P23219 24-599): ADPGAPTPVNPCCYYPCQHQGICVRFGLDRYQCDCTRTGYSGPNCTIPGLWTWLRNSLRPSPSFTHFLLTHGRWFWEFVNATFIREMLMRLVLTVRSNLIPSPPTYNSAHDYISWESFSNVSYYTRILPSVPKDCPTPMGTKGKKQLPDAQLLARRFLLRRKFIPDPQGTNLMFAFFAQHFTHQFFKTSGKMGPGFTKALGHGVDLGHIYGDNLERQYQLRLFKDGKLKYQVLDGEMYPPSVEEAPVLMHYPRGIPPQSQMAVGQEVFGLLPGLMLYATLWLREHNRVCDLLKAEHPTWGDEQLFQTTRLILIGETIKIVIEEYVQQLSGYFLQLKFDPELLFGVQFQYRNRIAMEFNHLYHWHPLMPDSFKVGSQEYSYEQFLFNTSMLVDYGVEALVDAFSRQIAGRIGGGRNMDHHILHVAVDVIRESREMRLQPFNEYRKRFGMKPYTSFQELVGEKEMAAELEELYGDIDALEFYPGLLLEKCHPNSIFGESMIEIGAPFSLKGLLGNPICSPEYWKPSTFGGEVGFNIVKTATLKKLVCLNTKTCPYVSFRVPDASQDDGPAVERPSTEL

By IC50 is commonly meant the concentration at which inhibition is half-maximal. Lower therefore signals greater potency. For `Cc1cc(C(=O)O)c(C(F)(F)c2cccc(C(C)C)c2)cc1C` [A5, 2-(difluoro(3-isopropylphenyl)methyl)-4,5-dimethylbenzoic acid], the IC50 was 5.2 µM.

The values are drawn from PMC6824041, “gem-Difluorobisarylic derivatives: design, synthesis and anti-inflammatory effect” (BMC Chemistry, 2019).
